Test results taken from the supplement of paper PMC10307832.

What was measured:
Experiment in all cases: relative viability (nuclei count vs DMSO), 5 days (fraction); higher = more cells survive
[1] = compound: CCc1cnn2c(NCc3ccc[n+]([O-])c3)cc(N3CCCC[C@H]3CCO)nc12 [Dinaciclib] + Cc1nc(NC(=O)N2CCC[C@H]2C(N)=O)sc1-c1ccnc(C(C)(C)C(F)(F)F)c1 [Alpelisib] (partner 2 µM)
Method in brief: (§1)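 The day after seeding in 1536-well plates, lung cancer cell lines were treated by pin tool with a single drug, or with a fixed anchor-drug dose together with five library-drug doses (not always all listed) in √10 steps. After 5 days, a combined fix-and-stain solution (final 0.05% Triton X-100, 1% formaldehyde, 1 ug/ml Hoechst) was added. Nuclei counted on 4× images gave relative viability as treated counts over vehicle counts, reported as the median of duplicate plates.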

[2] = compound: CCc1cnn2c(NCc3ccc[n+]([O-])c3)cc(N3CCCC[C@H]3CCO)nc12 [Dinaciclib] + N=C(N)NC(=N)NCCc1ccccc1 [Phenformin] (partner 250 µM)
Method in brief: as §1

[3] = compound: CCc1cnn2c(NCc3ccc[n+]([O-])c3)cc(N3CCCC[C@H]3CCO)nc12 [Dinaciclib] + Cc1nc(Nc2ncc(C(=O)Nc3c(C)cccc3Cl)s2)cc(N2CCN(CCO)CC2)n1 [Dasatinib] (partner 0.075 µM)
Method in brief: as §1

[4] = compound: CCc1cnn2c(NCc3ccc[n+]([O-])c3)cc(N3CCCC[C@H]3CCO)nc12 [Dinaciclib] + CS(=O)(=O)CCNCc1ccc(-c2ccc3ncnc(Nc4ccc(OCc5cccc(F)c5)c(Cl)c4)c3c2)o1 [Lapatinib] (partner 2 µM)
Method in brief: as §1

[5] = compound: CCc1cnn2c(NCc3ccc[n+]([O-])c3)cc(N3CCCC[C@H]3CCO)nc12 [Dinaciclib] + NC(=O)Nc1cc(-c2cccc(F)c2)sc1C(=O)N[C@H]1CCCNC1 [AZD7762] (partner 0.2 µM)
Method in brief: as §1

Row | Cell Line | relative viability ([1]; first compound 0.009487 µM) | relative viability ([1]; first compound 0.03 µM) | relative viability ([1]; first compound 0.09487 µM) | relative viability ([1]; first compound 0.3 µM) | relative viability ([2]; first compound 0.009487 µM) | relative viability ([2]; first compound 0.03 µM) | relative viability ([2]; first compound 0.09487 µM) | relative viability ([2]; first compound 0.3 µM) | relative viability ([3]; first compound 0.009487 µM) | relative viability ([3]; first compound 0.03 µM) | relative viability ([3]; first compound 0.09487 µM) | relative viability ([3]; first compound 0.3 µM) | relative viability ([4]; first compound 0.009487 µM) | relative viability ([4]; first compound 0.03 µM) | relative viability ([4]; first compound 0.09487 µM) | relative viability ([4]; first compound 0.3 µM) | relative viability ([5]; first compound 0.009487 µM) | relative viability ([5]; first compound 0.03 µM) | relative viability ([5]; first compound 0.09487 µM) | relative viability ([5]; first compound 0.3 µM)
1 | NCI-H1437 | 0.87 | 0.182 | 0.0937 | 0.094 | 0.279 | 0.187 | 0.17 | 0.13 | 0.411 | 0.102 | 0.103 | 0.0897 | 0.637 | 0.115 | 0.0859 | 0.0933 | 1.12 | 0.16 | 0.182 | 0.163
2 | NCI-H1651 | 0.865 | 0.613 | 0.108 | 0.0602 | 0.26 | 0.219 | 0.0746 | 0.0547 | 0.299 | 0.159 | 0.0523 | 0.0403 | 0.685 | 0.142 | 0.0637 | 0.0602 | 0.637 | 0.65 | 0.205 | 0.0865
3 | NCI-H1666 | 0.716 | 0.165 | 0.228 | 0.243 | 0.461 | 0.34 | 0.4 | 0.347 | 0.617 | 0.37 | 0.304 | 0.264 | 0.319 | 0.19 | 0.182 | 0.212 | 1.01 | 0.691 | 0.32 | 0.321
4 | NCI-H1734 | 0.607 | 0.271 | 0.127 | 0.138 | 0.318 | 0.14 | 0.113 | 0.115 | 0.373 | 0.122 | 0.142 | 0.119 | 0.72 | 0.158 | 0.134 | 0.143 | 0.505 | 0.108 | 0.108 | 0.089
5 | NCI-H1755 | 0.852 | 0.241 | 0.158 | 0.169 | 0.545 | 0.405 | 0.224 | 0.218 | 0.427 | 0.194 | 0.225 | 0.191 | 1.05 | 0.829 | 0.163 | 0.184 | 0.49 | 0.306 | 0.211 | 0.219
6 | NCI-H1792 | 0.732 | 0.289 | 0.118 | 0.0656 | 0.237 | 0.184 | 0.0541 | 0.075 | 0.823 | 0.631 | 0.439 | 0.183 | 0.848 | 0.808 | 0.0608 | 0.0733 | 0.585 | 0.0463 | 0.032 | 0.0288
7 | NCI-H1793 | 0.468 | 0.188 | 0.163 | 0.15 | 0.374 | 0.235 | 0.115 | 0.119 | 0.372 | 0.2 | 0.0986 | 0.13 | 0.389 | 0.112 | 0.18 | 0.147 | 0.83 | 0.144 | 0.156 | 0.121
8 | NCI-H1915 | 0.866 | 0.202 | 0.108 | 0.108 | 0.295 | 0.149 | 0.13 | 0.133 | 0.301 | 0.149 | 0.121 | 0.123 | 0.715 | 0.134 | 0.102 | 0.111 | 0.763 | 0.354 | 0.115 | 0.0982
